Tested on: ID8-Vegf Defb29 cells stably expressing firefly luciferase
Assay: Syngeneic ID8-luc ovarian tumor model, IP
Type: in vivo
Details: C57BL6 mice, 40 mg/Kg every 3 days IP
Method: Female C57BL6 mice were inoculated IP with 3x10^5 ID8-Defb29/VegfA-luc cells in 100 μL PBS. At day 3, mice were imaged for basal level luminescence activity with a Xenogen IVIS 200 after IP injection with luciferin (0.3 mg in 100 μL water). Mice were randomized into groups and treated IP with compounds or vehicle (25% (w/v) β-Hydroxypropylcyclodextrin in water), and imaged again on days indicated.
In addition to direct tumor cell killing, it is possible that RA475 may trigger an immunogenic cell death and thus anti-tumor immunity that could contribute to tumor control. Therefore, we elected to first test the treatment potential of RA475 in an ovarian tumor in a syngeneic mouse model. Since ovarian cancer is shed into, and spread within the peritoneal cavity, female C57BL6 mice were injected IP with ID8-Vegf Defb29 cells stably expressing firefly luciferase (0.5 x 10^6 cells ID8-luc) in PBS (100 μL). After 72 h, mice were imaged for their basal luminescence levels using an IVIS200 imager to confirm the presence of viable tumor cells. Mice with visible luminescence were randomized into two groups and treated with Vehicle (25% β-hydroxy propylcyclodextrin in water, 200 μL, every 3 days, IP) and RA475 (40 mg/Kg, every 3 days, IP). Mice were weighed and, after administration of luciferin (100 μL, 7.8 mg/mL), imaged every week to assess bioluminescence associated with tumor burden. […]
Fig 6 Treatment with RA475 of mice bearing an orthotopic syngeneic ovarian cancer model tumor. Female C57BL6 mice bearing ID8-Luc tumor were monitored for tumor burden by IVIS imaging (A), survival (B) and animal weight (C) after treatment with IP treatment every three days with RA475 (40mg/Kg, n = 8) or vehicle alone (n = 7). […] After 72 h, mice were imaged after administration of luciferin (100 μL, 7.8 mg/mL) for their basal luminescence levels using an IVIS200 imager. Mice with visible luminescence were randomized into two groups and treated with Vehicle alone (25% β-hydroxy propylcyclodextrin in water, 200 μL, every 3 days, IP) or RA475 (40 mg/Kg, every 3 days, IP). […]

Cl.Cl.N#Cc1ccc(/C=C2/C(=O)/C(=C/c3ccc(C#N)cc3)C23CCN(C(=N)N)CC3)cc1 [RA475, 1,3-bis((E)-4-cyanobenzylidene)-2-oxo-7-azaspiro[3.5]nonane-7-carboximidamide dihydrochloride]
survival: prolonged survival | tumor burden by bioluminescence: tumor control | animal weight (while on treatment): continue to gain weight
